Measurements from patent publication US20230263808A1 (UNIVERSITY OF FLORIDA RESEARCH FOUNDATION, INCORPORATED, priority 2020, published 2023).

Key:
C2C12 myotubes = assay: Protein degradation: chymotrypsin-like proteasomal activity in C2C12 myotubes; assay type: cell-based, mouse
Procedure: A) C2C12 myotubes were assayed for chymotrypsin-like proteasomal activity. […] C) Quantitation of the ICW in panel B. D) ICW for surface expression of Glut4 on L6 myotubes. E) ICW for insulin-induced incorporation of puromycin into C2C12 myotube surface proteins. F-G) High-content imaging and analysis of C2C12 myoblasts stained with a Mitotracker dye. H) Assay reproducibility from screening 22 compounds on two separate occasions. The Pearson correlation coefficient, r, and its associated p-value is indicated.
C2C12 myocytes were used in all assays, except in the Glut4 translocation assay where L6 rat myocytes were used. ICW, In-Cell Western. Also see Methods.
To avoid such effects on myogenesis, we switched myoblasts to differentiation media, and then on day 4, added 10 μM cytarabine, a chemotherapy agent that kills dividing cells, and then adding GCs on day 6 or 7 and completing assays in day 8 (FIG. 8).
Physiologically, the effects of GCs on protein balance and Glut4 translocation vary in vivo depending upon the stressor. For example, GCs mediate atrophy in response to fasting but not exercise. […] To assess protein degradation, we measured chymotrypsin-like proteasomal activity (FIG. 2, A). The activating phosphorylation of AKT at Thr308 (pAKT) was measured using a LI-COR In-Cell Western assay (FIG. 2, B and C). The rate-limiting step in insulin-mediated glucose uptake is the translocation of the glucose transporter, Glut4, to the surface membrane, which we also measured by In-Cell Western without permeabilizing the myotubes (FIG. 2, D). Surface Sensing of Translation (SUnSET) (Schmidt et al., Nat Methods 6, 275-277, 2009) assay was used to measure protein synthesis by In-Cell Western, following treatment of myotubes with a low dose of puromycin, which incorporates into translating proteins, but at a low enough level to provide a readout for global protein synthesis (FIG. 2, E). […]

[1] = test system: IL-1β-induced IL-6 secretion by A549 lung cells; assay: IL-1β-induced IL-6 secretion by A549 lung cells (AlphaLISA); assay type: cell-based

## C=CCOC1CC2(C)C(CCC2(O)C#CC)C2CCc3cc(C(=O)Nc4cccnc4C)ccc3C12 (stereo not drawn) [SR11466]
C2C12 myotubes
  effect on protein degradation (proteasomal): no effect
[1]; A549 cells, with RU486
  inhibition of IL-6 production in combination with RU486: reversed by RU486
[1]; A549 lung cells, read-out: potency for inhibiting IL-1β-induced IL-6 secretion
  IC50: 4 nM
